Laboratory results published in ChEMBL document CHEMBL5104192, “Late-Stage Functionalization with Cysteine Staples Generates Potent and Selective Melanocortin Receptor-1 Agonists” (J Med Chem, 2022).
*1 amine or outer side, *2 acyl side, *3 side chain or, on linkers, in order; H or OH if unused. Where a SMILES comes first, the peptide text is derived from it. Bridges are numbered along the chain shown (N, C = ends). [ ]: non-standard residue; d: D form. Maleimide(3,4-diyl) = O=C1NC(=O)C([*:2])=C1[*:1]; C6F4(1,4-diyl) = Fc1c(F)c([*:2])c(F)c(F)c1[*:1]; X3 = NC(=O)/C(=C(\C(=O)O)[*:2])[*:1]; Nle = CCCC[C@H](N)C(=O)O

What was measured:
[1] = molecular target: T1, Melanocyte-stimulating hormone receptor (Homo sapiens, UniProt Q01726); test: Displacement of [125I]-NDP-alpha-MSH from human MC1R expressed in HEK2936E cell membrane measured after 16 to 23 hrs by 1450 microbeta trilux scintillation proximity assay; type: cell membranes; details: for pKi: hek2936e
[2] = molecular target: T2, Melanocortin receptor 3 (Homo sapiens, UniProt P41968); test: Displacement of [125I]-NDP-alpha-MSH from human MC3R expressed in HEK2936E cell membrane measured after 16 to 23 hrs by 1450 microbeta trilux scintillation proximity assay; type: cell membranes; details: for pKi: hek2936e
[3] = molecular target: T3, Melanocortin receptor 4 (Homo sapiens, UniProt P32245); test: Displacement of [125I]-NDP-alpha-MSH from human MC4R expressed in HEK2936E cell membrane measured after 16 to 23 hrs by 1450 microbeta trilux scintillation proximity assay; type: cell membranes; details: for pKi: hek2936e
[4] = molecular target: T1, Melanocyte-stimulating hormone receptor; test: Agonist activity at human MC1R expressed in HEK2936E cells assessed as cAMP production in presence of IBMX by time resolved fluorescence assay; type: functional, cell-based; details: for pEC50: hek2936e; for EC50: read-out: pEC50 (converted)
[5] = molecular target: T2, Melanocortin receptor 3; test: Agonist activity at human MC3R expressed in HEK2936E cells assessed as cAMP production in presence of IBMX by time resolved fluorescence assay; type: functional, cell-based; details: for pEC50: hek2936e
[6] = molecular target: T3, Melanocortin receptor 4; test: Agonist activity at human MC4R expressed in HEK2936E cells assessed as cAMP production in presence of IBMX by time resolved fluorescence assay; type: functional, cell-based; details: for pEC50: hek2936e
[7] = molecular target: Melanocortin receptor 5 (Homo sapiens, UniProt P33032); test: Agonist activity at human MC5R expressed in HEK2936E cells assessed as cAMP production in presence of IBMX by time resolved fluorescence assay; type: functional, cell-based
[8] = species: Homo sapiens; test: Selectivity ratio of Ki for human MC3R to Ki for human MC1R
[9] = species: Homo sapiens; test: Selectivity ratio of Ki for human MC4R to Ki for human MC1R
[10] = species: Homo sapiens; test: Selectivity ratio of EC50 for human MC3R to EC50 for human MC1R
[11] = species: Homo sapiens; test: Selectivity ratio of EC50 for human MC4R to EC50 for human MC1R

T1 sequence (Q01726 whole entry): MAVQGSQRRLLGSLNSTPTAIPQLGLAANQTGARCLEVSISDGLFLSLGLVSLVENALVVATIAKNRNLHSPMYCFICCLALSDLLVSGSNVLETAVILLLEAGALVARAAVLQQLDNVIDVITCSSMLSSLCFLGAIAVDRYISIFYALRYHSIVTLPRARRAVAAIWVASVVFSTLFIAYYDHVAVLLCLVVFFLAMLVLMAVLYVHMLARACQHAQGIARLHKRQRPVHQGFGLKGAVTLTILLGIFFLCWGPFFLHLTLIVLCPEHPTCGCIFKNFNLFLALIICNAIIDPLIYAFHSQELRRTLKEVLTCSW
T2 sequence (P41968 whole entry): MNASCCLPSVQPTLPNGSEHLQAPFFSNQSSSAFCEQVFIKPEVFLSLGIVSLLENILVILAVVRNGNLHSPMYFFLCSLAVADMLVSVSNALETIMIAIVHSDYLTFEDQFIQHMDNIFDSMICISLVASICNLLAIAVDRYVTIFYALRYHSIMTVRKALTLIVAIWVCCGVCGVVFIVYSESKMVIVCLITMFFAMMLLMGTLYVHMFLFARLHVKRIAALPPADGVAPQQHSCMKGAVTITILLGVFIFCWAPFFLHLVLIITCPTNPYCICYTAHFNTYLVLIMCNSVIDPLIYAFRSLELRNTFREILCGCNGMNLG
Melanocortin receptor 5, sequence (P33032 whole entry): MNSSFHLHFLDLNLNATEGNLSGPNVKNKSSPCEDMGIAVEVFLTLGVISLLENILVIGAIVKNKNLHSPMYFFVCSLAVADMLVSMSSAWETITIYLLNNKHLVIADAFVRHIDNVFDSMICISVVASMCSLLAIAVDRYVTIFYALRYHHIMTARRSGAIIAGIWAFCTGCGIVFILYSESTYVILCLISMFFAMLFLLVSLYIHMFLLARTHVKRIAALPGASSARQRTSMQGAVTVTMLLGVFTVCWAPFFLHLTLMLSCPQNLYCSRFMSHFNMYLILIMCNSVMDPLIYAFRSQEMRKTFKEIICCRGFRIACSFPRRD
T3 sequence (P32245 whole entry): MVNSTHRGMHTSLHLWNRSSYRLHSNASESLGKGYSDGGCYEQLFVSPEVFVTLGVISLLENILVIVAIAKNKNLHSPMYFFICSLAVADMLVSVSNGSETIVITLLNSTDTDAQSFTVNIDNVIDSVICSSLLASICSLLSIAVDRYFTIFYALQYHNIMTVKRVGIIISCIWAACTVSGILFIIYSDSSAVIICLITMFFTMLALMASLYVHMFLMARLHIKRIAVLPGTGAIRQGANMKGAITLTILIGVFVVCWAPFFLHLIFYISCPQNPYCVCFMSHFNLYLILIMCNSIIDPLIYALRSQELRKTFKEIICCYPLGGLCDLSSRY

| Compound | pKi [1] | pKi [2] | pKi [3] | pEC50 [4] | pEC50 [5] | pEC50 [6] | pEC50 [7] | Ratio Ki [8] | Ratio Ki [9] | Ratio EC50 [10] | Ratio EC50 [11] | Ki [1] [nM] | Ki [2] [nM] | Ki [3] [nM] | EC50 [4] [nM] | EC50 [5] [nM] | EC50 [6] [nM] |
| --- | --- | --- | --- | --- | --- | --- | --- | --- | --- | --- | --- | --- | --- | --- | --- | --- | --- |
| CC[C@H](C)[C@@H]1NC(=O)[C@@H]2CCCN2C(=O)[C@H](Cc2c[nH]c3ccccc23)NC(=O)[C@H](CCCNC(=N)N)N(C)C(=O)[C@H](Cc2ccccc2)NC(=O)[C@H](Cc2cnc[nH]2)NC(=O)[C@H]([C@@H](C)O)NC(=O)[C@H](NC(C)=O)CCSCc2cccc(c2)CSCC[C@H](C(N)=O)NC1=O | 7.31 | 5.08 | 6.34 | 8.79 | 6.42 | 6.72 | 4.78 | 170 | 9 | 219 | 110 |  |  |  |  |  |  |
| CC[C@H](C)[C@@H]1NC(=O)[C@@H]2CCCN2C(=O)[C@H](Cc2c[nH]c3ccccc23)NC(=O)[C@H](CCCNC(=N)N)N(C)C(=O)[C@H](Cc2ccccc2)NC(=O)[C@H](Cc2cnc[nH]2)NC(=O)[C@H]([C@@H](C)O)NC(=O)[C@H](NC(C)=O)CCSCc2ccc(cc2)CSCC[C@H](C(N)=O)NC1=O | 7 | 4.89 |  | 8.4 | 6.3 |  | 4.71 |  |  |  |  |  |  |  |  |  |  |
| CC[C@H](C)[C@@H]1NC(=O)[C@@H]2CCCN2C(=O)[C@H](Cc2c[nH]c3ccccc23)NC(=O)[C@H](CCCNC(=N)N)N(C)C(=O)[C@H](Cc2ccccc2)NC(=O)[C@H](Cc2cnc[nH]2)NC(=O)[C@H]([C@@H](C)O)NC(=O)[C@H](NC(C)=O)CCSSCC[C@H](C(N)=O)NC1=O | 7.24 | 5.2 | 6.53 | 8.32 | 6.72 | 7.32 | 5.38 | 110 | 5 | 40 | 10 |  |  |  |  |  |  |
| CC[C@H](C)[C@@H]1NC(=O)[C@@H]2CCCN2C(=O)[C@H](Cc2c[nH]c3ccccc23)NC(=O)[C@H](CCCNC(=N)N)N(C)C(=O)[C@H](Cc2ccccc2)NC(=O)[C@H](Cc2cnc[nH]2)NC(=O)[C@H]([C@@H](C)O)NC(=O)[C@H](NC(C)=O)CCSCc2ccccc2CSCC[C@H](C(N)=O)NC1=O | 7.16 | 4.88 | 5.93 | 8.67 | 6.34 | 6.74 | 4.82 | 191 | 17 | 214 | 85 |  |  |  |  |  |  |
| CCCC[C@@H]1NC(=O)[C@@H]2CSc3c(F)c(F)c(c(F)c3F)SC[C@H](NC(=O)[C@H](CCCNC(=N)N)NC(=O)[C@H](CC(=O)O)NC(=O)[C@H](Cc3c[nH]c4ccccc34)NC(=O)[C@H](CCCNC(=N)N)NC(=O)[C@H](Cc3ccccc3)NC(=O)[C@H](Cc3cnc[nH]3)NC(=O)CNC1=O)C(=O)N[C@@H](Cc1cnc[nH]1)C(=O)N[C@@H](Cc1ccccc1)C(=O)N[C@@H](CCCNC(=N)N)C(=O)N[C@@H](Cc1c[nH]c3ccccc13)C(=O)N[C@@H](CCCNC(=N)N)C(=O)N2 (cyclo(CHFRWRC[Nle]GHFRWDR); linker 1-7 via C6F4(1,4-diyl)) |  |  |  |  |  |  |  | 15 | 58 | 2 | 29 | 0.794 | 11.7 | 45.7 | 0.123 | 0.275 | 3.55 |
| CCCC[C@@H]1NC(=O)[C@@H]2CSC3=C(SC[C@H](NC(=O)[C@H](CCCNC(=N)N)NC(=O)[C@H](CC(=O)O)NC(=O)[C@H](Cc4c[nH]c5ccccc45)NC(=O)[C@H](CCCNC(=N)N)NC(=O)[C@H](Cc4ccccc4)NC(=O)[C@H](Cc4cnc[nH]4)NC(=O)CNC1=O)C(=O)N[C@@H](Cc1cnc[nH]1)C(=O)N[C@@H](Cc1ccccc1)C(=O)N[C@@H](CCCNC(=N)N)C(=O)N[C@@H](Cc1c[nH]c4ccccc14)C(=O)N[C@@H](CCCNC(=N)N)C(=O)N2)C(=O)NC3=O (cyclo(CHFRWRC[Nle]GHFRWDR); linker 1-7 via Maleimide(3,4-diyl)) |  |  |  |  |  |  |  | 8 | 22 | 1 | 17 | 3.63 | 28.2 | 81.3 | 0.288 | 0.398 | 5.01 |
| CCCC[C@@H]1NC(=O)[C@@H]2CS/C(C(=O)O)=C(/C(N)=O)SC[C@H](NC(=O)[C@H](CCCNC(=N)N)NC(=O)[C@H](CC(=O)O)NC(=O)[C@H](Cc3c[nH]c4ccccc34)NC(=O)[C@H](CCCNC(=N)N)NC(=O)[C@H](Cc3ccccc3)NC(=O)[C@H](Cc3cnc[nH]3)NC(=O)CNC1=O)C(=O)N[C@@H](Cc1cnc[nH]1)C(=O)N[C@@H](Cc1ccccc1)C(=O)N[C@@H](CCCNC(=N)N)C(=O)N[C@@H](Cc1c[nH]c3ccccc13)C(=O)N[C@@H](CCCNC(=N)N)C(=O)N2 (cyclo(CHFRWRC[Nle]GHFRWDR); linker 1-7 via X3) |  |  |  |  |  |  |  | 30 | 31 | 5 | 23 | 9.77 | 295 | 302 | 0.479 | 2.57 | 11.2 |
